Laboratory results reported in PubChem BioAssay AID1259407 (Chemical Carcinogenesis Research Information System (CCRIS), 2018).
The source made the active and inactive calls. How the calls were made is not given here.

Tested on: CCRIS mutagenicity, Ames/micronucleus/aberration tests
Assay: CCRIS mutagenicity studies
[1] = Test System: AMES SALMONELLA TYPHIMURIUM, Strain/Indicator: TA98, Metabolic Activation: HAMSTER, LIVER, S-9, AROCLOR 1254 (10%), Method: PREINCUBATION
[2] = Test System: AMES SALMONELLA TYPHIMURIUM, Strain/Indicator: TA98, Metabolic Activation: NONE, Method: PREINCUBATION
[3] = Test System: AMES SALMONELLA TYPHIMURIUM, Strain/Indicator: TA98, Metabolic Activation: RAT, LIVER, S-9, AROCLOR 1254 (10%), Method: PREINCUBATION
[4] = Test System: AMES SALMONELLA TYPHIMURIUM, Strain/Indicator: TA100, Metabolic Activation: NONE, Method: PREINCUBATION
[5] = Test System: AMES SALMONELLA TYPHIMURIUM, Strain/Indicator: TA100, Metabolic Activation: RAT, LIVER, S-9, AROCLOR 1254 (10%), Method: PREINCUBATION
[6] = Test System: AMES SALMONELLA TYPHIMURIUM, Strain/Indicator: TA1535, Metabolic Activation: HAMSTER, LIVER, S-9, AROCLOR 1254 (10%), Method: PREINCUBATION
[7] = Test System: AMES SALMONELLA TYPHIMURIUM, Strain/Indicator: TA1535, Metabolic Activation: NONE, Method: PREINCUBATION
[8] = Test System: AMES SALMONELLA TYPHIMURIUM, Strain/Indicator: TA1535, Metabolic Activation: RAT, LIVER, S-9, AROCLOR 1254 (10%), Method: PREINCUBATION

Measured: mutagenic call

C=CC(=O)NCNC(=O)C=C
active: [6] active; positive
inactive: Test System: AMES SALMONELLA TYPHIMURIUM, Strain/Indicator: TA97, Metabolic Activation: HAMSTER, LIVER, S-9, AROCLOR 1254 (10%), Method: PREINCUBATION inactive; negative | Test System: AMES SALMONELLA TYPHIMURIUM, Strain/Indicator: TA97, Metabolic Activation: NONE, Method: PREINCUBATION inactive; negative | Test System: AMES SALMONELLA TYPHIMURIUM, Strain/Indicator: TA97, Metabolic Activation: RAT, LIVER, S-9, AROCLOR 1254 (10%), Method: PREINCUBATION inactive; negative | [1] inactive; negative | [2] inactive; negative | [3] inactive; negative | Test System: AMES SALMONELLA TYPHIMURIUM, Strain/Indicator: TA100, Metabolic Activation: HAMSTER, LIVER, S-9, AROCLOR 1254 (5, 10 OR 30%), Method: PREINCUBATION inactive; negative | [4] inactive; negative | [5] inactive; negative | [7] inactive; negative | [8] inactive; negative

CC(C)=CCl
active: Test System: MOUSE LYMPHOMA, Strain/Indicator: L5178Y (TK+/TK-), Metabolic Activation: RAT, LIVER, S-9, AROCLOR 1254, Method: SUSPENSION/PLATE active; positive. reevaluation of results: positive
inactive: End Point: IN VITRO CHROMOSOMAL ABERRATIONS, Test System: CHO CELLS, Metabolic Activation: NONE inactive; negative | End Point: IN VITRO CHROMOSOMAL ABERRATIONS, Test System: CHO CELLS, Metabolic Activation: RAT, LIVER, S-9, AROCLOR 1254 inactive; negative | [1] inactive; negative | [2] inactive; negative | [3] inactive; negative | Test System: AMES SALMONELLA TYPHIMURIUM, Strain/Indicator: TA100, Metabolic Activation: HAMSTER, LIVER, S-9, AROCLOR 1254 (10%), Method: PREINCUBATION inactive; negative | [4] inactive; negative | [5] inactive; negative | Test System: AMES SALMONELLA TYPHIMURIUM, Strain/Indicator: TA102, Metabolic Activation: RAT, LIVER, S-9, PHENOBARBITAL AND 5,6-BENZOFLAVONE, Method: STANDARD PLATE inactive; negative | [6] inactive; negative | [7] inactive; negative | [8] inactive; negative | Test System: AMES SALMONELLA TYPHIMURIUM, Strain/Indicator: TA1537, Metabolic Activation: HAMSTER, LIVER, S-9, AROCLOR 1254 (10%), Method: PREINCUBATION inactive; negative | Test System: AMES SALMONELLA TYPHIMURIUM, Strain/Indicator: TA1537, Metabolic Activation: NONE, Method: PREINCUBATION inactive; negative | Test System: AMES SALMONELLA TYPHIMURIUM, Strain/Indicator: TA1537, Metabolic Activation: RAT, LIVER, S-9, AROCLOR 1254 (10%), Method: PREINCUBATION inactive; negative | Test System: AMES SALMONELLA TYPHIMURIUM, Strain/Indicator: TA2638, Metabolic Activation: RAT, LIVER, S-9, PHENOBARBITAL AND 5,6-BENZOFLAVONE, Method: STANDARD PLATE inactive; negative | Test System: E. COLI, Strain/Indicator: WP2 (PKM101), Metabolic Activation: RAT, LIVER, S-9, PHENOBARBITAL AND 5,6-BENZOFLAVONE, Method: STANDARD PLATE inactive; negative | Test System: E. COLI, Strain/Indicator: WP2 UVRA (PKM101), Metabolic Activation: RAT, LIVER, S-9, PHENOBARBITAL AND 5,6-BENZOFLAVONE, Method: STANDARD PLATE inactive; negative | Test System: Mouse lymphoma, Strain/Indicator: L5178Y (tk+/tk-), Metabolic Activation: None, Method: Suspension/plate inactive; negative

N#CC(Cl)(Cl)Cl
active: Test System: AMES SALMONELLA TYPHIMURIUM, Strain/Indicator: TA100, Metabolic Activation: NONE, Method: FLUCTUATION TEST active; positive
inactive: Test System: AMES SALMONELLA TYPHIMURIUM, Strain/Indicator: TA98, Metabolic Activation: NONE, Method: FLUCTUATION (MICROTITER) inactive; negative | Test System: AMES SALMONELLA TYPHIMURIUM, Strain/Indicator: TA98, Metabolic Activation: NONE, Method: STANDARD PLATE inactive; negative | Test System: AMES SALMONELLA TYPHIMURIUM, Strain/Indicator: TA98, Metabolic Activation: RAT LIVER S-9, AROCLOR 1254, Method: FLUCTUATION (MICROTITER) inactive; negative | Test System: AMES SALMONELLA TYPHIMURIUM, Strain/Indicator: TA98, Metabolic Activation: RAT, LIVER, S-9, AROCLOR 1254, Method: STANDARD PLATE inactive; negative | Test System: AMES SALMONELLA TYPHIMURIUM, Strain/Indicator: TA100, Metabolic Activation: NONE, Method: STANDARD PLATE inactive; negative | Test System: AMES SALMONELLA TYPHIMURIUM, Strain/Indicator: TA100, Metabolic Activation: RAT, LIVER, S-9, AROCLOR 1254, Method: FLUCTUATION TEST inactive; negative | Test System: AMES SALMONELLA TYPHIMURIUM, Strain/Indicator: TA100, Metabolic Activation: RAT, LIVER, S-9, AROCLOR 1254, Method: STANDARD PLATE inactive; negative | Test System: AMES SALMONELLA TYPHIMURIUM, Strain/Indicator: TA1535, Metabolic Activation: NONE, Method: STANDARD PLATE inactive; negative | Test System: AMES SALMONELLA TYPHIMURIUM, Strain/Indicator: TA1535, Metabolic Activation: RAT, LIVER, S-9, AROCLOR 1254, Method: STANDARD PLATE inactive; negative | Test System: AMES SALMONELLA TYPHIMURIUM, Strain/Indicator: TA1537, Metabolic Activation: NONE, Method: FLUCTUATION (MICROTITER) inactive; negative | Test System: AMES SALMONELLA TYPHIMURIUM, Strain/Indicator: TA1537, Metabolic Activation: RAT LIVER S-9, AROCLOR 1254, Method: FLUCTUATION (MICROTITER) inactive; negative | Test System: AMES SALMONELLA TYPHIMURIUM, Strain/Indicator: TA7001, Metabolic Activation: NONE, Method: FLUCTUATION (MICROTITER) inactive; negative | Test System: AMES SALMONELLA TYPHIMURIUM, Strain/Indicator: TA7001, Metabolic Activation: RAT LIVER S-9, AROCLOR 1254, Method: FLUCTUATION (MICROTITER) inactive; negative | Test System: AMES SALMONELLA TYPHIMURIUM, Strain/Indicator: TA7002, Metabolic Activation: NONE, Method: FLUCTUATION (MICROTITER) inactive; negative | Test System: AMES SALMONELLA TYPHIMURIUM, Strain/Indicator: TA7002, Metabolic Activation: RAT LIVER S-9, AROCLOR 1254, Method: FLUCTUATION (MICROTITER) inactive; negative | Test System: AMES SALMONELLA TYPHIMURIUM, Strain/Indicator: TA7003, Metabolic Activation: NONE, Method: FLUCTUATION (MICROTITER) inactive; negative | Test System: AMES SALMONELLA TYPHIMURIUM, Strain/Indicator: TA7003, Metabolic Activation: RAT LIVER S-9, AROCLOR 1254, Method: FLUCTUATION (MICROTITER) inactive; negative | Test System: AMES SALMONELLA TYPHIMURIUM, Strain/Indicator: TA7004, Metabolic Activation: NONE, Method: FLUCTUATION (MICROTITER) inactive; negative | Test System: AMES SALMONELLA TYPHIMURIUM, Strain/Indicator: TA7004, Metabolic Activation: RAT LIVER S-9, AROCLOR 1254, Method: FLUCTUATION (MICROTITER) inactive; negative | Test System: AMES SALMONELLA TYPHIMURIUM, Strain/Indicator: TA7005, Metabolic Activation: NONE, Method: FLUCTUATION (MICROTITER) inactive; negative | Test System: AMES SALMONELLA TYPHIMURIUM, Strain/Indicator: TA7005, Metabolic Activation: RAT LIVER S-9, AROCLOR 1254, Method: FLUCTUATION (MICROTITER) inactive; negative | Test System: AMES SALMONELLA TYPHIMURIUM, Strain/Indicator: TA7006, Metabolic Activation: NONE, Method: FLUCTUATION (MICROTITER) inactive; negative | Test System: AMES SALMONELLA TYPHIMURIUM, Strain/Indicator: TA7006, Metabolic Activation: RAT LIVER S-9, AROCLOR 1254, Method: FLUCTUATION (MICROTITER) inactive; negative
